Results on five molecules are retold here after patent US10556875B2, “Bis-diazeniumdiolate compounds as anti-cancer agents” (ARIZONA BOARD OF REGENTS ON BEHALF OF ARIZONA STATE …, priority 2017, dated 2020).

What all share (assay type): cell-based, human
In test [1] the test system is breast cancer cell MDA-MB-231. The test can be described thus: In vitro cellular proliferation assay (MTT/MTS).
Test [2] concerns BT474 breast cancer cells. In words: In vitro cellular proliferation assay (MTT/MTS). As for the experimental part:
(§1) In Vitro Cellular Proliferation Assay: BT474 breast cancer cells (ATCC® HTB-20, overexpression of HER2), A549 lung cancer cells, leukemia cell CCRF-CEM (ATCC# CCL-119), and leukemia Jurkat cell were cultured at 37° C. in a 5% CO2 atmosphere and grown in Gibco® RPMI 1640 medium supplemented with 10% fetal bovine serum (FBS) and 1% antibiotic-[…] mix antibiotic supplement before use.
(§2) Exponentially growing cells were harvested and plated in 96-well plates at a concentration of 1×10^4 cells/well. After incubation at 37° C. for 24 h, the cells were treated with analogues of JS-K at different concentrations for an additional 24, 48 or 72 h. Then 20 μL of MTT (5 mg/mL) or MTS was added to each well and the plates were incubated at 37° C. for 4 h. The supernatant was discarded for MTT assay, and 100 μL of DMSO was added to each well. For the MTS assay, this step is not necessary. The absorbance was recorded at 490 nm after 15 min. Inhibition of cell growth was obtained by the following formula: Inhibition of cell growth (%)=(ODnegative control−ODtreatment)×100%/(ODnegative control−ODbackground). Data are reported as the mean of three independent experiments, each run in quintuplicate.

For a further test, the system named is leukemia cell CCRF-CEM. In words: In vitro cellular proliferation assay (MTT/MTS). As to the method: as §1, §2
Test [3] has as its system leukemia Jurkat E6-1 cells. The test can be described thus: In vitro cellular proliferation assay (MTT/MTS). As to the method:
as §1, §2

The next test relates to A549 lung cancer cells. The test can be described thus: In vitro cellular proliferation assay (MTT/MTS). As for the experimental part: as §1, §2
Test [4] relates to BT474, MDA-MB-231, A549, CCRF-CEM and Jurkat cancer cells. The test can be described thus: In vitro cellular proliferation assay, comparison across the tested cancer cell panel. As for the experimental part:
as §1, §2

Where [5] appears, read: Homo sapiens, MDA-MB-231, read-out: Half maximal inhibitory concentration (IC50).
The mark [6] stands for this setting: Homo sapiens, BT-474, read-out: Half maximal inhibitory concentration (IC50).
Setting [7] is: Homo sapiens, CCRF-CEM, read-out: Half maximal inhibitory concentration (IC50).
The mark [8] stands for this setting: Homo sapiens, Jurkat E6.1, read-out: Half maximal inhibitory concentration (IC50).
The mark [9] stands for this setting: Homo sapiens, A549, read-out: Half maximal inhibitory concentration (IC50).

Like-named read-outs stand apart in the source and are kept apart here.

`O=[N+]([O-])c1ccc(O/N=[N+](\[O-])N2CCN(CCCN3CCN(/[N+]([O-])=N/Oc4ccc([N+](=O)[O-])cc4[N+](=O)[O-])CC3)CC2)c([N+](=O)[O-])c1` [Compound 2, (1Z,1′Z)-1,1′-(propane-1,3-diylbis(piperazine-4,1-diyl))bis(2-(2,4-dinitrophenoxy)diazene 1-oxide)]: the IC50 in test [1] (setting [5]) was more than 20 µM; in test [2] (setting [6]), 10.8 ± 0.08 µM; with leukemia cell CCRF-CEM (setting [7]), 3.73 ± 0.15 µM; in test [3] (setting [8]), 4.06 ± 0.18 µM; with A549 lung cancer cells (setting [9]), 18.8 ± 0.21 µM.
Regarding `O=[N+]([O-])c1ccc(O/N=[N+](\[O-])N2CCN(CC3CCC(CN4CCN(/[N+]([O-])=N/Oc5ccc([N+](=O)[O-])cc5[N+](=O)[O-])CC4)CC3)CC2)c([N+](=O)[O-])c1` (stereo not drawn) [Compound 4, (1Z,1′Z)-1,1′-((cyclohexane-1,4-diylbis(methylene))bis(piperazine-4,1-diyl))bis(2-(2,4-dinitrophenoxy)diazene 1-oxide)], the IC50 turned out to be 16.4 ± 0.53 µM in test [1] (setting [5]); 6.01 ± 0.21 µM in test [2] (setting [6]); 2.54 ± 0.14 µM with leukemia cell CCRF-CEM (setting [7]); 3.01 ± 0.22 µM in test [3] (setting [8]); 18.5 ± 0.15 µM in the test on A549 lung cancer cells (setting [9]).
Regarding `O=[N+]([O-])c1ccc(O/N=[N+](\[O-])N2CCC(CN3CCN(/N=[N+](\[O-])Oc4ccc([N+](=O)[O-])cc4[N+](=O)[O-])CC3)CC2)c([N+](=O)[O-])c1` [Compound 3, (E)-1-(2,4-dinitrophenoxy)-2-(4-((1-((Z)-2-(2,4-dinitrophenoxy)-1-oxidodiazen-1-yl)piperidin-4-yl)methyl)piperazin-1-yl)diazene 1-oxide], the “specific activity to human leukemia cells” value in test [4] (among the compounds of the series) is on record as “highest specific activity”. Moreover, the “selectivity to leukemia cells versus breast cancer and lung cancer cells” value in test [4] (compared with JS-K) is given as “higher selectivity than JS-K”. Moreover, in test [4] (other four cancer cells (other than CEM), relative to JS-K), the “IC50 fold higher (less cell killing potency) than for JS-K” value was 1.9-5.4 fold. The IC50 came to 17.9 ± 1.01 µM in test [1] (setting [5]); 7.06 ± 1.03 µM in test [2] (setting [6]); 0.46 ± 0.02 µM in the test on leukemia cell CCRF-CEM (setting [7]); 0.46 µM with leukemia cell CCRF-CEM (Homo sapiens, CCRF-CEM, read-out: IC50 against leukemia CEM cells); 1.94 ± 0.08 µM in test [3] (setting [8]); 11.3 ± 1.61 µM in the test on A549 lung cancer cells (setting [9]).
`O=[N+]([O-])c1ccc(O/N=[N+](\[O-])N2CCN(CCN3CCN(/[N+]([O-])=N/Oc4ccc([N+](=O)[O-])cc4[N+](=O)[O-])CC3)CC2)c([N+](=O)[O-])c1` [Compound 1, (1Z,1′Z)-1,1′-(ethane-1,2-diylbis(piperazine-4,1-diyl))bis(2-(2,4-dinitrophenoxy)diazene 1-oxide)]: the IC50 in test [1] (setting [5]) came to 17.6 ± 0.08 µM; in test [2] (setting [6]), 10.7 ± 0.97 µM; with leukemia cell CCRF-CEM (setting [7]), 2.64 ± 0.37 µM; in test [3] (setting [8]), 3.71 ± 0.04 µM; in the test with A549 lung cancer cells (setting [9]) it was 17.1 ± 1.02 µM.
`CCOC(=O)N1CCN(/[N+]([O-])=N/Oc2ccc([N+](=O)[O-])cc2[N+](=O)[O-])CC1` [JS-K, O^2-(2,4-dinitrophenyl) 1-[(4-ethoxycarbonyl)piperazin-1-yl]diazen-1-ium-1,2-diolate, reference compound]: in test [4] (all tested cancer cells: BT474, MDA-MB-231, A549, CCRF-CEM, Jurkat), the “inhibitory effect on cellular proliferation” value is given as “high inhibitory effect”. The IC50 came out at 7.93 ± 0.47 µM in test [1] (MDA-MB-231 cells, read-out: Half maximal inhibitory concentration (IC50)); 3.66 ± 0.41 µM in test [2] (BT474 cells, read-out: Half maximal inhibitory concentration (IC50)); 0.29 µM in the test with leukemia cell CCRF-CEM (leukemia CEM cells, read-out: IC50 against leukemia CEM cells); 0.52 ± 0.02 µM in test [3] (Jurkat E6-1 cells, read-out: Half maximal inhibitory concentration (IC50)); 2.11 ± 0.15 µM with A549 lung cancer cells (A549 cells, read-out: Half maximal inhibitory concentration (IC50)).
